The results in this text go back to US12655142B2 (Merck Patent GmbH, priority 2019, dated 2026).

One test deals with T1, c-Kit(V654A) (Homo sapiens, UniProt P10721, V654A).
T1 construct: recombinant human c-Kit, amino acids 544-end containing the V654A mutation; GST (N)
The test is described as follows: c-Kit(V654A) assay (33P-ATP filter binding kinase assay). It is filed as biochemical. The settings on record: recombinant human c-Kit aa 544-end V654A, ATP 200 μM. In a few lines: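 Radiometric filter-binding read-out: substrate 33P incorporation counted by scintillation after P30 filtermat washes in 75 mM phosphoric acid and methanol. Enzyme: N-GST recombinant human c-Kit aa 544-end carrying V654A.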

Test [1] concerns the target T2, GIST430/654 cell line expressing mutated constitutively active cKIT receptor tyrosine kinase (Δ560-576 deletion and V654A point mutation) (Homo sapiens, UniProt P10721, DEL560-576/V654A).
T2 construct: endogenous in cells; host or cells: GIST430/654 cells
Put plainly: Cellular cKIT autophosphorylation (phospho-Y307-cKIT, Luminex bead assay) in GIST430/654 cells. Type of test: cell-based. The settings on record: compounds 45 min, read-out: GIST 430/654 IC50. In a few lines: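 Phospho-Y307 cKIT in lysates was measured on a Luminex bead assay, with total-cKIT capture overnight at 4 °C and phosphospecific plus PE secondary detection. Cells had 45 min exposure to a compound dilution series the day after plating: GIST430 (Δ560-576) or GIST430/654 (Δ560-576/V654A, grown with 100 nM imatinib). IC50 values are relative to 0.3% DMSO-treated cells.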

T2 sequence (P10721 with tags, fused parts or gaps DEL560-576/V654A): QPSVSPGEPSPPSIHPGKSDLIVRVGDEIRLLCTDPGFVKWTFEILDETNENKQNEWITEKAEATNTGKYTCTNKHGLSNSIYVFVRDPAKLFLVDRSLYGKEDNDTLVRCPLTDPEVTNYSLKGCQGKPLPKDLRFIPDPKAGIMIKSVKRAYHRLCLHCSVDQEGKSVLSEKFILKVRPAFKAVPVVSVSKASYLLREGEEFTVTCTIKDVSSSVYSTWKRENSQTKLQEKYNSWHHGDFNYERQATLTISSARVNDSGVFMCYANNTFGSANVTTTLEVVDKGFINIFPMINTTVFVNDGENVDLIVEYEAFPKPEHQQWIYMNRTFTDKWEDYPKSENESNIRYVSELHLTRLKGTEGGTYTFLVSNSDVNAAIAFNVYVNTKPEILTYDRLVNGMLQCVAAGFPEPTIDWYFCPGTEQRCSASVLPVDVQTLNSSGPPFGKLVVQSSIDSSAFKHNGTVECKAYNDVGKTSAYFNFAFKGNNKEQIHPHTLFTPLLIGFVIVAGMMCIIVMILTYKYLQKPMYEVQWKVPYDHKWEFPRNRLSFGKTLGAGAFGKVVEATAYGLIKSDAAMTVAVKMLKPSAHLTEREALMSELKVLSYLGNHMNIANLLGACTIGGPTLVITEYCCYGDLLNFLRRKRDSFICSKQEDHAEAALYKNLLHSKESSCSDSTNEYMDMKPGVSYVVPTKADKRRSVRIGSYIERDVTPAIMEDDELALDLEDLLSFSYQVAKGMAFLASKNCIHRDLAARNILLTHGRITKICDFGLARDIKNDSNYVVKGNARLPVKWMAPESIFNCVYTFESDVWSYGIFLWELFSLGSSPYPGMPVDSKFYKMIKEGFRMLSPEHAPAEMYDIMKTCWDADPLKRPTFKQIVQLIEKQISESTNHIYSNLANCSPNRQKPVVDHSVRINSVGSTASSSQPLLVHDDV
T1 sequence (P10721 544-976 V654A): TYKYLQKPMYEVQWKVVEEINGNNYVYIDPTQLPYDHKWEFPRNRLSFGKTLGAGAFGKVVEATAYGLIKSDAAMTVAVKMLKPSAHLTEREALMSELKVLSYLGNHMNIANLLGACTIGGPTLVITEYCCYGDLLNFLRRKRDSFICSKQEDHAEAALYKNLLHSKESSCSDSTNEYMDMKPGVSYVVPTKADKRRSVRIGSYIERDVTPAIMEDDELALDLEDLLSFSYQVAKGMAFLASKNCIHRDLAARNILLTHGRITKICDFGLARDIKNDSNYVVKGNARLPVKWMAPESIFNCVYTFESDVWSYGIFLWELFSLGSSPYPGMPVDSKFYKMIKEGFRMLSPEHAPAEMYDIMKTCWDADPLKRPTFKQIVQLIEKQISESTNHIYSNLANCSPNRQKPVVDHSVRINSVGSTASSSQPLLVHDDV

Regarding `CCN(CC)CCCOc1ccn2c(-c3cc(NCc4ccc(-c5cnn(C)c5)cc4)ncn3)cnc2c1` [A137, 6-{7-[3-(diethylamino)propoxy]imidazo[1,2-a]pyridin-3-yl}-N-{[4-(1-methyl-1H-pyrazol-4-yl)phenyl]methyl}pyrimidin-4-amine], the IC50 on c-Kit(V654A) is 5.6 nM; in test [1], 45 nM.
For `Cn1cc(-c2ccc(CNc3cc(-c4cnc5cc(OCCN6CCS(=O)(=O)CC6)ccn45)ncn3)cc2)cn1` [A138, 4-[2-({3-[6-({[4-(1-methyl-1H-pyrazol-4-yl)phenyl]methyl}amino)pyrimidin-4-yl]imidazo[1,2-a]pyridin-7-yl}oxy)ethyl]-1lambda6-thiomorpholine-1,1-dione] the same measures were 6.9 nM and 64 nM.
On to `Cn1cc(-c2ccc(CNc3cc(-c4cnc5cc(OCCN6CC(F)(F)C6)ccn45)ncn3)cc2)cn1` [A139, 6-{7-[2-(3,3-difluoroazetidin-1-yl)ethoxy]imidazo[1,2-a]pyridin-3-yl}-N-{[4-(1-methyl-1H-pyrazol-4-yl)phenyl]methyl}pyrimidin-4-amine], for which the IC50 on c-Kit(V654A) came to 9.6 nM; in test [1], 160 nM.
For `Cn1cc(-c2ccc(CNc3cc(-c4cnc5cc(OCCCN6CC(F)(F)C6)ccn45)ncn3)cc2)cn1` [A142, 6-{7-[3-(3,3-difluoroazetidin-1-yl)propoxy]imidazo[1,2-a]pyridin-3-yl}-N-{[4-(1-methyl-1H-pyrazol-4-yl)phenyl]methyl}pyrimidin-4-amine] the same measures were 7.3 nM and 65 nM.
As for `Cn1cc(-c2ccc(CNc3cc(-c4cnc5cc(OCCCS(C)(=O)=O)ccn45)ncn3)cc2)cn1` [A143, {6-[7-(3-methanesulfonyl-propoxy)-imidazo[1,2-a]pyridin-3-yl]-pyrimidin-4-yl}-[4-(1-methyl-1H-pyrazol-4-yl)-benzyl]-amine], the figures for the IC50 (on c-Kit(V654A); in test [1]) were 21 nM and 380 nM, respectively.
For `Cn1cc(-c2ccc(CNc3cc(-c4cnc5cc(OCCCN6CCCC6=O)ccn45)ncn3)cc2)cn1` [A145, 1-[3-({3-[6-({[4-(1-methyl-1H-pyrazol-4-yl)phenyl]methyl}amino)pyrimidin-4-yl]imidazo[1,2-a]pyridin-7-yl}oxy)propyl]pyrrolidin-2-one], the IC50 on c-Kit(V654A) is 41 nM; in test [1] it was 250 nM.
The like results for `Fc1cc(N2CCCC2)ncc1CNc1cc(-c2cnc3ccccn23)ncn1` [A152, (4-fluoro-6-pyrrolidin-1-yl-pyridin-3-ylmethyl)-(6-imidazo[1,2-a]pyridin-3-yl-pyrimidin-4-yl)-amine] were, in that order, 3.8 nM and 370 nM.
The like results for `c1ccn2c(-c3cc(NCc4ccc(-c5ncc[nH]5)cc4)ncn3)cnc2c1` [A157, (6-imidazo[1,2-a]pyridin-3-yl-pyrimidin-4-yl)-[4-(1H-imidazol-2-yl)-benzyl]-amine] were, in that order, 33 nM and 1500 nM.
With `Cn1cc(-c2ccc(CNc3cc(-c4cnc5cc(O)ccn45)ncn3)cc2)cn1` [A160, 3-[6-({[4-(1-methyl-1H-pyrazol-4-yl)phenyl]methyl}amino)pyrimidin-4-yl]imidazo[1,2-a]pyridin-7-ol], the IC50 at c-Kit(V654A) was 38 nM; in test [1], 1000 nM.
For `COc1ccn2c(-c3cc(NCc4ccc(-c5cnn(C)c5CO)cc4)ncn3)cnc2c1` [A161, [4-(4-{[6-(7-methoxy-imidazo[1,2-a]pyridin-3-yl)-pyrimidin-4-ylamino]-methyl}-phenyl)-2-methyl-2H-pyrazol-3-yl]-methanol] the same measures were 22 nM and 180 nM.
Regarding `Cn1cc(-c2ccc(CNc3cc(-c4cnc5cc(N)ccn45)ncn3)cc2)cn1` [A162, 6-{7-aminoimidazo[1,2-a]pyridin-3-yl}-N-{[4-(1-methyl-1H-pyrazol-4-yl)phenyl]methyl}pyrimidin-4-amine], the IC50 on c-Kit(V654A) was 7.4 nM; in test [1], 180 nM.
Take `Cn1cc(-c2ccc(CNc3cc(-c4cnc5cc(NC(C)(C)CO)ccn45)ncn3)cc2)cn1` [A163, 2-methyl-2-(3-{6-[4-(1-methyl-1H-pyrazol-4-yl)-benzylamino]-pyrimidin-4-yl}-imidazo[1,2-a]pyridin-7-ylamino)-propan-1-ol]: the IC50 worked out at 85 nM on c-Kit(V654A) and 1900 nM in test [1].
For the compound `Cn1cc(-c2ccc(CNc3cc(-c4cnc5cc(OC6CCNCC6)ccn45)ncn3)cc2)cn1` [A164, N-{[4-(1-methyl-1H-pyrazol-4-yl)phenyl]methyl}-6-[7-(piperidin-4-yloxy)imidazo[1,2-a]pyridin-3-yl]pyrimidin-4-amine], the results for the IC50 (on c-Kit(V654A); in test [1]) were 9 nM and 260 nM, respectively.
For `Cn1cc(-c2ccc(CNc3cc(-c4cnc5cc(CCN6CCC(F)(F)C6)ccn45)ncn3)cc2)cn1` [A169, (6-{7-[2-(3,3-difluoro-pyrrolidin-1-yl)-ethyl]-imidazo[1,2-a]pyridin-3-yl}-pyrimidin-4-yl)-[4-(1-methyl-1H-pyrazol-4-yl)-benzyl]-amine] the same measures were 32 nM and 300 nM.
For `Cn1cc(-c2ccc(CNc3cc(-c4cnc5cc(N6CCOCC6)ccn45)ncn3)cc2)cn1` [A180, [4-(1-methyl-1H-pyrazol-4-yl)-benzyl]-[6-(7-morpholin-4-yl-imidazo[1,2-a]pyridin-3-yl)-pyrimidin-4-yl]-amine] the same measures were 7.8 nM and 77 nM.
For the compound `CN1CCN(c2ccn3c(-c4cc(NCc5ccc(-c6cnn(C)c6)cc5)ncn4)cnc3c2)CC1` [A181, {6-[7-(4-methyl-piperazin-1-yl)-imidazo[1,2-a]pyridin-3-yl]-pyrimidin-4-yl}-[4-(1-methyl-1H-pyrazol-4-yl)-benzyl]-amine], the figures for the IC50 (at c-Kit(V654A); in test [1]) were 15 nM and 110 nM, respectively.
For `Cn1cc(-c2ccc(CNc3cc(-c4cnc5cc(OC6CCN(C7COC7)CC6)ccn45)ncn3)cc2)cn1` [A182, N-{[4-(1-methyl-1H-pyrazol-4-yl)phenyl]methyl}-6-(7-{[1-(oxetan-3-yl)piperidin-4-yl]oxy}imidazo[1,2-a]pyridin-3-yl)pyrimidin-4-amine] the same measures were 11 nM and 92 nM.
As for `Cn1cc(-c2ccc(CNc3cc(-c4cnc5cc(OCC6CCN(C7CC7)CC6)ccn45)ncn3)cc2)cn1` [A187, {6-[7-(1-cyclopropyl-piperidin-4-ylmethoxy)-imidazo[1,2-a]pyridin-3-yl]-pyrimidin-4-yl}-[4-(1-methyl-1H-pyrazol-4-yl)-benzyl]-amine], the IC50 at c-Kit(V654A) was found to be 7.5 nM; in test [1], 380 nM.
For `Cn1cc(-c2ccc(CNc3cc(-c4cnc5cc(OCC6CCN(CC#N)CC6)ccn45)ncn3)cc2)cn1` [A188, [4-(3-{6-[4-(1methyl-1H-pyrazol-4-yl)-benzylamino]-pyrimidin-4-yl}-imidazo[1,2-a]pyridin-7-yloxymethyl)-piperidin-1-yl]-acetonitrile] the same measures were 9.5 nM and 190 nM.
For `COCCN1CCC(COc2ccn3c(-c4cc(NCc5ccc(-c6cnn(C)c6)cc5)ncn4)cnc3c2)CC1` [A190] the same measures were 3.8 nM and 170 nM.
For `COCCN1CCC(COc2ccn3c(-c4cc(NCc5ccc(-c6cnn(C)n6)cc5)ncn4)cnc3c2)CC1` [A191, (6-{7-[1-(2-methoxy-ethyl)-piperidin-4-ylmethoxy]-imidazo[1,2-a]pyridin-3-yl}-pyrimidin-4-yl)-[4-(2-methyl-2H-[1,2,3]triazol-4-yl)-benzyl]-amine] the same measures were 2.2 nM and 39 nM.
On to `Cn1ncc(-c2ccc(CNc3cc(-c4cnc5cc(OCC6CCN(CC(F)F)CC6)ccn45)ncn3)cc2)n1` [A193, (6-{7-[1-(2,2-difluoro-ethyl)-piperidin-4-ylmethoxy]-imidazo[1,2-a]pyridin-3-yl}-pyrimidin-4-yl)-[4-(2-methyl-2H-[1,2,3]triazol-4-yl)-benzyl]-amine], for which the IC50 on c-Kit(V654A) is 19 nM; in test [1], 26 nM.
The like results for `Cn1cc(-c2ccc(CNc3cc(-c4cnc5cc(OCCN6C[C@@H](F)[C@@H](F)C6)ccn45)ncn3)cc2)cn1` [A209, (6-{7-[2-((3S,4R)-3,4-difluoro-pyrrolidin-1-yl)-ethoxy]-imidazo[1,2-a]pyridin-3-yl}-pyrimidin-4-yl)-[4-(1-methyl-1H-pyrazol-4-yl)-benzyl]-amine] were, in that order, 9.5 nM and 78 nM.
`Cn1cc(-c2ccc(CNc3cc(-c4cnc5cc(OCCN6CCC[C@@H]7OCC[C@@H]76)ccn45)ncn3)cc2)cn1` [A210, (6-{7-[(3aS,7aS)-2-(hexahydro-furo[3,2-b]pyridin-4-yl)-ethoxy]-imidazo[1,2-a]pyridin-3-yl}-pyrimidin-4-yl)-[4-(1-methyl-1H-pyrazol-4-yl)-benzyl]-amine]: the results for the IC50 (at c-Kit(V654A); in test [1]) were 6.5 nM and 100 nM, respectively.
The like results for `Cn1cc(-c2ccc(CNc3cc(-c4cnc5cc(OCCCCN6CCC6)ccn45)ncn3)cc2)cn1` [A225, {6-[7-(4-azetidin-1-yl-butoxy)-imidazo[1,2-a]pyridin-3-yl]-pyrimidin-4-yl}-[4-(1-methyl-1H-pyrazol-4-yl)-benzyl]-am amine] were, in that order, 15 nM and 57 nM.
As to `CC(COc1ccn2c(-c3cc(NCc4ccc(-c5cnn(C)n5)cc4)ncn3)cnc2c1)CN1CCCC1` (stereo not shown) [A227, {6-[7-(2-methyl-3-pyrrolidin-1-yl-propoxy)-imidazo[1,2-a]pyridin-3-yl]-pyrimidin-4-yl}-[4-(2-methyl-2H-[1,2,3]triazol-4-yl)-benzyl]-amine], the IC50 at c-Kit(V654A) was determined as 3.3 nM; in test [1], 48 nM.
